Source: patent publication US11109611B2, “Compositions and methods that modulate digestibility in a companion animal” (Societe des Produits Nestle SA, priority 2016, dated 2021)

Tests used:
Type in all cases: in vivo, canine
Details in all cases: plasma after overnight fasting in fifth week of feeding, correlations with P value < 0.01
Canines [1] = assay: Metabolite correlations with organic matter digestibility (plasma metabolomics)
Experimental: (§1) 83 Canines were all fed Diet A for 5 weeks, followed by a 1 week transition period and then 15 were fed Diet B for 5 weeks as shown in the Table 1 below. Plasma samples were taken after overnight fasting using EDTA vacutainer tubes during the fifth week of feeding of each diet. After centrifugation, plasma was aliquoted into cryovials and frozen at −80° C.
(§2) Metabolomic analysis was carried out using the following methods by Metabolon Inc. Samples were extracted and split into equal parts for analysis on GC/MS and LC/MS/MS platforms. Proprietary software was used to match ions to an in-house library of standards for metabolite identification and for metabolite quantitation by peak area integration by Metabolon Inc. Mass and retention index are provided in the following tables such that each metabolite can be uniquely identified and individually distinguished.
(§3) At the time of analysis, samples were thawed and extracts prepared to remove protein, dislodge small molecules bound to protein or physically trapped in the precipitated protein matrix, and recover a wide range of chemically diverse metabolites. A separate aliquot of each experimental plasma sample was taken then pooled for the creation of “Client Matrix” (CMTRX) samples. These CMTRX samples were injected throughout the platform run and served as technical replicates, allowing variability in the quantitation of all consistently detected biochemicals to be determined and overall process variability and platform performance to be monitored. Extracts of all experimental and CMTRX samples were split for analysis on the GC/MS and LC/MS/MS platforms.
(§4) The CMTRX technical replicate samples were treated independently throughout the process as if they were client study samples. All process samples (CMTRX and Grob test mixtures of organic components used to assess GC column performance, process blanks, etc.) were spaced evenly among the injections for each day and all client samples were randomly distributed throughout each day's run. Data were collected over multiple platform run days and thus ‘block normalized’ by calculating the median values for each run-day block for each individual compound. […] Missing values (if any) were assumed to be below the level of detection for that biochemical with the instrumentation used and were imputed with the observed minimum for that particular biochemical.
(§5) A number of internal standards were added to each experimental and process standard sample just prior to injection into the mass spectrometers.
Metabolite correlations with organic matter digestibility were determined based on plasma metabolomics (Table 2). […] The metabolite compositions of the two different diets were determined to identify relative levels of specific compounds.

Canines [2] = assay: Metabolite correlations with dry matter digestibility (plasma metabolomics)
Experimental: as §1, §2, §3, §4, §5
Metabolite correlations with dry matter digestibility were determined based on plasma metabolomics (Table 6). […] Feeding different levels of these compounds (diet B vs diet A; Table 7), and noting changes in dry matter digestibility (Table 8), served as a validation model. The metabolite compositions of the two different diets were determined to identify relative levels of specific compounds.

Canines [3] = assay: Metabolite correlations with fiber digestibility (plasma metabolomics)
Experimental: as §1, §2, §3, §4
A number of internal standards were added to each experimental and process standard sample just prior to injection into the mass spectrometers. A measure of the platform variability (7%) was determined by calculating the median relative standard deviation (RSD) for these internal standards. Because these standards are added to the samples immediately prior to injection into the instrument, this value reflects instrument variation. In addition, the median relative standard deviation (RSD) for the biochemicals that were consistently measured in the CMTRX represents the total variability within the process for the actual experimental samples and the variability in quantitation of the endogenous metabolites within these samples (12%).
589 total metabolites were detected in plasma. […]
Metabolite correlations with fiber digestibility were determined based on plasma metabolomics (Table 10). […] The metabolite compositions of the two different diets were determined in order to identify relative levels of specific compounds.

| Compound | Correlation with organic matter digestibility (Canines [1]) | Correlation with dry matter digestibility (Canines [2]) | Correlation with fiber digestibility (Canines [3]) |
| --- | --- | --- | --- |
| arabonate | −0.3117 | −0.3013 | – |
| O=C(O)C1CCCCN1 (centres unmarked) [pipecolate] | 0.415 | 0.3661 | – |
| threonate | 0.3788 | 0.3492 | – |
| OC[C@@H](O)C(O)[C@H](O)CO [arabitol] | −0.3609 | −0.369 | – |
| 1-palmitoylplasmenylethanolamine | −0.4149 | −0.4127 | −0.3651 |
| CCCCCCCC/C=C\CCCCCCCC(=O)OC(CO)COP(=O)(O)OCCN (centres unmarked) [2-oleoylglycerophosphoethanolamine] | −0.3761 | −0.3648 | – |
| CCCCC/C=C\C/C=C\CCCCCCCC(=O)OCC(O)COP(=O)(O)OCCN (centres unmarked) [1-linoleoylglycerophosphoethanolamine] | −0.2924 | – | – |
| dihomo-linolenate (20:3n3 or n6) | 0.4357 | 0.3649 | – |
| CC/C=C\C/C=C\C/C=C\C/C=C\C/C=C\CCCCCC(=O)O [docosapentaenoate (n3 DPA; 22:5n3)] | 0.4157 | 0.3814 | – |
| CCCCCCCC/C=C\CCCCCCCC(=O)OCC(O)COP(=O)(O)OCCN (centres unmarked) [1-oleoylglycerophosphoethanolamine] | −0.4678 | −0.4501 | – |
| CCCCCCCCCCCCCCCC(=O)OCC(O)CO (centres unmarked) [1-palmitoylglycerol (1-monopalmitin)] | – | – | −0.3548 |
| CCCCCCCCCCCCCCCC(=O)O [palmitate (16:0)] | 0.3027 | 0.2862 | – |
| CC(O)CC(=O)O (centres unmarked) [3-hydroxybutyrate (BHBA)] | 0.4249 | 0.3858 | – |
| O=C(O)CO [glycolate (hydroxyacetate)] | 0.3449 | 0.3124 | – |
| CCCCCCCC(=O)O[C@H](CC(=O)O)C[N+](C)(C)C [octanoylcarnitine] | 0.3604 | 0.3264 | – |
| CC(C)(O)CC(=O)O [beta-hydroxyisovalerate] | 0.3342 | 0.2994 | – |
| Cc1c(C)c2c(c(C)c1O)CC[C@@](C)(CCC[C@H](C)CCC[C@H](C)CCCC(C)C)O2 [alpha-tocopherol] | – | – | −0.3263 |
| CCCCCC/C=C\CCCCCCCC(=O)O [palmitoleate (16:1n7)] | 0.3097 | 0.3089 | – |
| linolenate [alpha or gamma; (18:3n3 or 6)] | 0.3932 | 0.372 | – |

| Compound | Correlation with organic matter digestibility (Canines [1]) | Correlation with dry matter digestibility (Canines [2]) | Correlation with fiber digestibility (Canines [3]) |
| --- | --- | --- | --- |
| campesterol | −0.3283 | −0.3101 | – |
| CCCCC/C=C\C/C=C\C/C=C\C/C=C\C/C=C\CCC(=O)O [docosapentaenoate (n6 DPA; 22:5n6)] | 0.4971 | 0.4484 | – |
| CCCCC/C=C\C/C=C\CCCCCCCCCC(=O)O [dihomo-linoleate (20:2n6)] | 0.5242 | 0.4696 | – |
| OC[C@H]1OC[C@H](O)[C@@H](O)[C@@H]1O [1,5-anhydroglucitol (1,5-AG)] | −0.2973 | – | – |
| eicosenoate (20:1n9 or 11) | 0.4051 | 0.3674 | – |
| CCCCC/C=C\C/C=C\CCCCCCCC(=O)O[C@H](CO)COP(=O)(O)OCCN [2-linoleoylglycerophosphoethanolamine] | −0.3461 | −0.3262 | – |
| O=C(O)C(O)CO (centres unmarked) [glycerate] | 0.3968 | 0.3423 | – |
| C[N+]1(C)CCC[C@H]1C(=O)[O-] [stachydrine] | −0.3927 | −0.3121 | – |
| C[n+]1cccc(C(=O)[O-])c1 [trigonelline (N′-methylnicotinate)] | −0.5801 | −0.5297 | – |
| CCC(N)C(=O)O (centres unmarked) [2-aminobutyrate] | 0.4586 | 0.4535 | – |
| OC[C@@H](O)[C@@H](O)[C@@H](O)CO [ribitol] | – | – | −0.3122 |
| CCCCC/C=C\C/C=C\CCCCCCCC(=O)O [linoleate (18:2n6)] | 0.287 | – | – |
| CCCCC/C=C\C/C=C\C/C=C\C/C=C\CCCC(=O)O [arachidonate (20:4n6)] | 0.5395 | 0.4779 | – |
| CC(C)C(=O)C(=O)O [3-methyl-2-oxobutyrate] | 0.3345 | 0.3102 | – |
| N[C@@H](CCC(=O)N[C@@H](CSSC[C@H](N)C(=O)O)C(=O)NCC(=O)O)C(=O)O [cysteine-glutathione disulfide] | −0.5693 | −0.5458 | – |
| CCCCCCCCCCCCCCCCC(=O)OC[C@@H](O)COP(=O)(O)OCCN [1-heptadecanoylglycerophosphoethanolamine] | −0.4779 | −0.4635 | −0.4181 |
| CCCCC/C=C\C/C=C\C/C=C\C/C=C\CCCCCC(=O)O [adrenate (22:4n6)] | 0.4225 | 0.366 | – |
| CCCCCCCCCCCCCCCCCC(=O)O [stearate (18:0)] | 0.2845 | – | – |
| CC(C)(O)C(=O)O [2-hydroxyisobutyrate] | 0.3269 | 0.2975 | – |
